Assay results published in paper PMC12300041, “Tricyclic Isatin Derivatives as Anti-Inflammatory Compounds with High Kinase Binding Affinity” (Molecules, 2025).

Assays:
Test in all cases: KINOMEscan
Type in all cases: binding
[1] = target: T1, HIPK4 (Homo sapiens, UniProt Q8NE63)
T1 construct: purchased Eurofins DiscoverX KINOMEscan
Summary of the method: (§1)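 Kd values rest on a 12-point half-log titration, highest concentration 33 μM, with 1 h room-temperature binding and qPCR read-out of affinity-captured free kinase.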

[2] = target: T2, LATS2 (Homo sapiens, UniProt Q9NRM7)
T2 construct: purchased Eurofins DiscoverX KINOMEscan
Summary of the method: (§2)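 Binding reactions proceed for 1 h at room temperature. Kinase not bound by compound is captured on immobilized affinity ligand and quantified by qPCR; Kd is fitted over 12 half-log concentrations, top 33 μM.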

[3] = target: T3, ACVRL1 (Homo sapiens, UniProt P37023)
T3 construct: purchased Eurofins DiscoverX KINOMEscan
Summary of the method: as §1

[4] = target: T4, EPHB2 (Homo sapiens, UniProt P29323)
T4 construct: purchased Eurofins DiscoverX KINOMEscan
Summary of the method: as §1

[5] = target: T5, TEC (Homo sapiens, UniProt P42680)
T5 construct: purchased Eurofins DiscoverX KINOMEscan
Summary of the method: as §2

[6] = target: T6, CLK4 (Homo sapiens, UniProt Q9HAZ1)
T6 construct: purchased Eurofins DiscoverX KINOMEscan
Summary of the method: as §1

[7] = target: T7, SgK110 (Homo sapiens, UniProt P0C264)
T7 construct: purchased Eurofins DiscoverX KINOMEscan
Summary of the method: as §1

[8] = target: T8, MEK3 (Homo sapiens, UniProt P46734)
T8 construct: purchased Eurofins DiscoverX KINOMEscan
Summary of the method: as §2

[9] = target: T9, WEE2 (Homo sapiens, UniProt P0C1S8)
T9 construct: purchased Eurofins DiscoverX KINOMEscan
Summary of the method: as §2

[10] = target: T10, PRP4 (Homo sapiens, UniProt Q13523)
T10 construct: purchased Eurofins DiscoverX KINOMEscan
Summary of the method: as §1

[11] = target: T11, PLK2 (Homo sapiens, UniProt Q9NYY3)
T11 construct: purchased Eurofins DiscoverX KINOMEscan
Summary of the method: as §1

[12] = target: T12, CAMK1 (Homo sapiens, UniProt Q14012)
T12 construct: purchased Eurofins DiscoverX KINOMEscan
Summary of the method: as §2

[13] = target: T13, IRAK3 (Homo sapiens, UniProt Q9Y616)
T13 construct: purchased Eurofins DiscoverX KINOMEscan
Summary of the method: as §1

[14] = target: T14, PDGFRA (Homo sapiens, UniProt P16234)
T14 construct: purchased Eurofins DiscoverX KINOMEscan
Summary of the method: as §1

[15] = target: T15, HUNK (Homo sapiens, UniProt P57058)
T15 construct: purchased Eurofins DiscoverX KINOMEscan
Summary of the method: as §1

[16] = target: T16, SRMS (Homo sapiens, UniProt Q9H3Y6)
T16 construct: purchased Eurofins DiscoverX KINOMEscan
Summary of the method: as §2

[17] = target: T17, INSRR (Homo sapiens, UniProt P14616)
T17 construct: purchased Eurofins DiscoverX KINOMEscan
Summary of the method: as §2

[18] = target: T18, MET (Y1235D) (Homo sapiens, UniProt P08581, Y1235D)
T18 construct: purchased Eurofins DiscoverX KINOMEscan
Summary of the method: as §2

[19] = target: T19, BMPR1B (Homo sapiens, UniProt O00238)
T19 construct: purchased Eurofins DiscoverX KINOMEscan
Summary of the method: as §2

[20] = target: T20, CAMKK1 (Homo sapiens, UniProt Q8N5S9)
T20 construct: purchased Eurofins DiscoverX KINOMEscan
Summary of the method: as §2

[21] = target: T21, TYK2 (JH2 domain-pseudokinase) (Homo sapiens, UniProt P29597)
T21 construct: TYK2 (JH2 domain-pseudokinase); purchased Eurofins DiscoverX KINOMEscan
Summary of the method: as §2

[22] = target: T22, MET (Homo sapiens, UniProt P08581)
T22 construct: purchased Eurofins DiscoverX KINOMEscan
Summary of the method: as §2

[23] = target: T23, PRKG1 (Homo sapiens, UniProt Q13976)
T23 construct: purchased Eurofins DiscoverX KINOMEscan
Summary of the method: as §1

[24] = target: T24, NEK9 (Homo sapiens, UniProt Q8TD19)
T24 construct: purchased Eurofins DiscoverX KINOMEscan
Summary of the method: as §2

[25] = target: T25, EGFR (G719C) (Homo sapiens, UniProt P00533, G719C)
T25 construct: purchased Eurofins DiscoverX KINOMEscan
Summary of the method: as §2

[26] = target: T26, RIPK5 (Homo sapiens, UniProt Q6XUX3)
T26 construct: purchased Eurofins DiscoverX KINOMEscan
Summary of the method: as §2

[27] = target: T27, ERK1 (Homo sapiens, UniProt P27361)
T27 construct: purchased Eurofins DiscoverX KINOMEscan
Summary of the method: as §2

[28] = target: T28, FES (Homo sapiens, UniProt P07332)
T28 construct: purchased Eurofins DiscoverX KINOMEscan
Summary of the method: as §2

[29] = target: T29, PAK4 (Homo sapiens, UniProt O96013)
T29 construct: purchased Eurofins DiscoverX KINOMEscan
Summary of the method: as §2

[30] = target: T30, ABL1-non-P (Homo sapiens, UniProt P00519)
T30 construct: purchased Eurofins DiscoverX KINOMEscan
Summary of the method: as §2

[31] = target: T31, CAMKK2 (Homo sapiens, UniProt Q96RR4)
T31 construct: purchased Eurofins DiscoverX KINOMEscan
Summary of the method: as §1

[32] = target: T32, STK16 (Homo sapiens, UniProt O75716)
T32 construct: purchased Eurofins DiscoverX KINOMEscan
Summary of the method: as §2

[33] = target: T33, FLT3 (N841I) (Homo sapiens, UniProt P36888, N841I)
T33 construct: purchased Eurofins DiscoverX KINOMEscan
Summary of the method: as §2

[34] = target: T34, YSK1 (Homo sapiens, UniProt O00506)
T34 construct: purchased Eurofins DiscoverX KINOMEscan
Summary of the method: as §2

[35] = target: T35, FLT3 (Homo sapiens, UniProt P36888)
T35 construct: purchased Eurofins DiscoverX KINOMEscan
Summary of the method: as §2

[36] = target: T36, JAK1 (JH1domain-cat.) (Homo sapiens, UniProt P23458)
T36 construct: JAK1 (JH1domain-cat.); purchased Eurofins DiscoverX KINOMEscan
Summary of the method: as §1

[37] = target: T37, VRK2 (Homo sapiens, UniProt Q86Y07)
T37 construct: purchased Eurofins DiscoverX KINOMEscan
Summary of the method: as §2

[38] = target: T38, CDKL2 (Homo sapiens, UniProt Q92772)
T38 construct: purchased Eurofins DiscoverX KINOMEscan
Summary of the method: as §1

[39] = target: T39, CDKL1 (Homo sapiens, UniProt Q00532)
T39 construct: purchased Eurofins DiscoverX KINOMEscan
Summary of the method: as §2

[40] = target: T40, RIPK2 (Homo sapiens, UniProt O43353)
T40 construct: purchased Eurofins DiscoverX KINOMEscan
Summary of the method: as §1

T34 sequence (O00506 whole entry): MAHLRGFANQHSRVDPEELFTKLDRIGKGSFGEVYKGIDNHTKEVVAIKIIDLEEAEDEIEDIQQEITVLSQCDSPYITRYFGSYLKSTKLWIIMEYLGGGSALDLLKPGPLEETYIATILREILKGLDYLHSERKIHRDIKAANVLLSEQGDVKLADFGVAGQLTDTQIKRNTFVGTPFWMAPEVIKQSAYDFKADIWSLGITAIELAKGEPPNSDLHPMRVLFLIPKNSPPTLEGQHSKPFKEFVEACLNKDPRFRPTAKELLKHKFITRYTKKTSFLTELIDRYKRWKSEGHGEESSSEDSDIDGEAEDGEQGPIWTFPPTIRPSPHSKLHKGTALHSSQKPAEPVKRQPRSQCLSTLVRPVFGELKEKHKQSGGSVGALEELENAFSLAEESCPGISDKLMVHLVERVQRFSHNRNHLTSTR
T16 sequence (Q9H3Y6 whole entry): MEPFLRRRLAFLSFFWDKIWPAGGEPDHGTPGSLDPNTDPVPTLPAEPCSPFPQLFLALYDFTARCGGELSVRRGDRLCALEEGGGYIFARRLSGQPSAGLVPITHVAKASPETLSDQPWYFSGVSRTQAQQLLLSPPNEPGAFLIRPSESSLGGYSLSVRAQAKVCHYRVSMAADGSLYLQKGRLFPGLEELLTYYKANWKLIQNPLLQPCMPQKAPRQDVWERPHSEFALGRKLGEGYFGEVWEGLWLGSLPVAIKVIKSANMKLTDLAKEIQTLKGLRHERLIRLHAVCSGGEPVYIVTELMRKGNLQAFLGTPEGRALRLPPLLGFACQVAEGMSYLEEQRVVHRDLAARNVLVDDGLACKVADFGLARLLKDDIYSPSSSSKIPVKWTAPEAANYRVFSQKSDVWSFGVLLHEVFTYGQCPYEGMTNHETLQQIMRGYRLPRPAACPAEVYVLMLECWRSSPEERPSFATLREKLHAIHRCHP
T26 sequence (Q6XUX3 whole entry): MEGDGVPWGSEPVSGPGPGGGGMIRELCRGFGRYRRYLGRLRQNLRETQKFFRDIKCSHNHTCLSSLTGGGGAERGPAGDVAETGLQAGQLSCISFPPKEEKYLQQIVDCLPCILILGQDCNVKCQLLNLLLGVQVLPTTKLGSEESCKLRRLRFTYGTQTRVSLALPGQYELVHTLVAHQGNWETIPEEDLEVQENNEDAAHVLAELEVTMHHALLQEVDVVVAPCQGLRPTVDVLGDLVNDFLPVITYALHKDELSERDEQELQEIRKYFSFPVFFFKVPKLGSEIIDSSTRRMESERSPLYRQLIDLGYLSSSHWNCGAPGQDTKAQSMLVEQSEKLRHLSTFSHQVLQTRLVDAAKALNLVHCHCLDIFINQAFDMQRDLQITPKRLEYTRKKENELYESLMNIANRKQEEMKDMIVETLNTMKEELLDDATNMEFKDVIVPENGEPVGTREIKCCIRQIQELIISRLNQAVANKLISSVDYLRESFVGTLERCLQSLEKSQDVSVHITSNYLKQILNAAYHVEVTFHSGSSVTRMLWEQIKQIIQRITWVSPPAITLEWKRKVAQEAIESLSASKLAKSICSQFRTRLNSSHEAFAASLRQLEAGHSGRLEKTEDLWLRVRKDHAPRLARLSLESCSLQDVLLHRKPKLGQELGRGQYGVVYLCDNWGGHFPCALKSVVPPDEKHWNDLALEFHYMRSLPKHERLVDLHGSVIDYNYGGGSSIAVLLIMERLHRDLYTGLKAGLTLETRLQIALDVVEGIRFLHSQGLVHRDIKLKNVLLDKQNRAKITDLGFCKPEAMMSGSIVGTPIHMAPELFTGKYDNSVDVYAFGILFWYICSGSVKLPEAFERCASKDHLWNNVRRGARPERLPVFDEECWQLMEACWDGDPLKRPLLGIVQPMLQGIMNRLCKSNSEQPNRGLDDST
T28 sequence (P07332 whole entry): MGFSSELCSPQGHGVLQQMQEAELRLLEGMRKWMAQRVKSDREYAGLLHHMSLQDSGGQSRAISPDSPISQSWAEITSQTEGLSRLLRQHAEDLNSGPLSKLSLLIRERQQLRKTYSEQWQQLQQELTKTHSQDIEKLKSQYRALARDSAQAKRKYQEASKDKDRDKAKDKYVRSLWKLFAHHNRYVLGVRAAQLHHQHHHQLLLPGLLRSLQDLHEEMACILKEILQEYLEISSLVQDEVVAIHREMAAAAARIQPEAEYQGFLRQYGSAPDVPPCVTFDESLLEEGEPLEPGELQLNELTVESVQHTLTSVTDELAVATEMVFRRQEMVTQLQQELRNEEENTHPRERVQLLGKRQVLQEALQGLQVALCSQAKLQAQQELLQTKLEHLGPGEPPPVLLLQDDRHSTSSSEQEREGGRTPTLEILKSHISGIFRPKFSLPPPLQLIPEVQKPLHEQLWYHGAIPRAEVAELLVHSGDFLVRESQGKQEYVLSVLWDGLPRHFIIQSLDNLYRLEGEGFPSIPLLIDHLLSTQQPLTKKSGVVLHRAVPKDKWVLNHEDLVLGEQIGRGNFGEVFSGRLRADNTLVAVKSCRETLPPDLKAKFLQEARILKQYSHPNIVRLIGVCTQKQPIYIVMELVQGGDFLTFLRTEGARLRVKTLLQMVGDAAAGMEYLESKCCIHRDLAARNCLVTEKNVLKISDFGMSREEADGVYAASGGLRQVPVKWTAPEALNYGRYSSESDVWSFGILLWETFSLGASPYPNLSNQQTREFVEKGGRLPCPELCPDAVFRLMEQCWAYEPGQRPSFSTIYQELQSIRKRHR
T20 sequence (Q8N5S9 whole entry): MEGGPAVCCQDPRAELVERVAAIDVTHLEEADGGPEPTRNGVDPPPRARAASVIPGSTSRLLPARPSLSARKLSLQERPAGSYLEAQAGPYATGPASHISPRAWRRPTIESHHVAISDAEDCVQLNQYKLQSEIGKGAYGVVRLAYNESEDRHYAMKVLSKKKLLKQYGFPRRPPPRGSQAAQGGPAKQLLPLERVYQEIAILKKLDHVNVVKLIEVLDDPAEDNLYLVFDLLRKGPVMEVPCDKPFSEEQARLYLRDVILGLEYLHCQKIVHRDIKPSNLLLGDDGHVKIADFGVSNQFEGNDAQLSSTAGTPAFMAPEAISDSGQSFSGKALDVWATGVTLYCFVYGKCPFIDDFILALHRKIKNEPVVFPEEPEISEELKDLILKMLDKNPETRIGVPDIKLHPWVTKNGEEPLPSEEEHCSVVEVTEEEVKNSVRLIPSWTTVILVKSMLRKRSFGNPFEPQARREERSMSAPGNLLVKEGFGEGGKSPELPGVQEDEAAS
T11 sequence (Q9NYY3 whole entry): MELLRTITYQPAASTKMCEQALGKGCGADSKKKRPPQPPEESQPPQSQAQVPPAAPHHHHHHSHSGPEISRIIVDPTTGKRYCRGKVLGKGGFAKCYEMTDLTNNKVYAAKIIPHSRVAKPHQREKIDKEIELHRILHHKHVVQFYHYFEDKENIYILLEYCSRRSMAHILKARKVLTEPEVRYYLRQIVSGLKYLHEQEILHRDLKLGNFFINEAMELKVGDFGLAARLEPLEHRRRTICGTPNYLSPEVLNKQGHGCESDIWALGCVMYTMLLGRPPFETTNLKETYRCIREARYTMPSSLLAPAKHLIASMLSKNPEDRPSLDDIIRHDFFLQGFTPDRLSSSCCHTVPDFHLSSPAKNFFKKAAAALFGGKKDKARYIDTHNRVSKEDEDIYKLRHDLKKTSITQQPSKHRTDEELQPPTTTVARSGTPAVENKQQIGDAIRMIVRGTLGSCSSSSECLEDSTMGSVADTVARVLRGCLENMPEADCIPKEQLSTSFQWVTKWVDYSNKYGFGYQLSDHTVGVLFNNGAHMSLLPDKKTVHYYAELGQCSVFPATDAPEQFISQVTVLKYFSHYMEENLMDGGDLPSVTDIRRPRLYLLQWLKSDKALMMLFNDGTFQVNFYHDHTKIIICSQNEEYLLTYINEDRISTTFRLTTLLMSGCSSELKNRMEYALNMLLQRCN
T30 sequence (P00519 whole entry): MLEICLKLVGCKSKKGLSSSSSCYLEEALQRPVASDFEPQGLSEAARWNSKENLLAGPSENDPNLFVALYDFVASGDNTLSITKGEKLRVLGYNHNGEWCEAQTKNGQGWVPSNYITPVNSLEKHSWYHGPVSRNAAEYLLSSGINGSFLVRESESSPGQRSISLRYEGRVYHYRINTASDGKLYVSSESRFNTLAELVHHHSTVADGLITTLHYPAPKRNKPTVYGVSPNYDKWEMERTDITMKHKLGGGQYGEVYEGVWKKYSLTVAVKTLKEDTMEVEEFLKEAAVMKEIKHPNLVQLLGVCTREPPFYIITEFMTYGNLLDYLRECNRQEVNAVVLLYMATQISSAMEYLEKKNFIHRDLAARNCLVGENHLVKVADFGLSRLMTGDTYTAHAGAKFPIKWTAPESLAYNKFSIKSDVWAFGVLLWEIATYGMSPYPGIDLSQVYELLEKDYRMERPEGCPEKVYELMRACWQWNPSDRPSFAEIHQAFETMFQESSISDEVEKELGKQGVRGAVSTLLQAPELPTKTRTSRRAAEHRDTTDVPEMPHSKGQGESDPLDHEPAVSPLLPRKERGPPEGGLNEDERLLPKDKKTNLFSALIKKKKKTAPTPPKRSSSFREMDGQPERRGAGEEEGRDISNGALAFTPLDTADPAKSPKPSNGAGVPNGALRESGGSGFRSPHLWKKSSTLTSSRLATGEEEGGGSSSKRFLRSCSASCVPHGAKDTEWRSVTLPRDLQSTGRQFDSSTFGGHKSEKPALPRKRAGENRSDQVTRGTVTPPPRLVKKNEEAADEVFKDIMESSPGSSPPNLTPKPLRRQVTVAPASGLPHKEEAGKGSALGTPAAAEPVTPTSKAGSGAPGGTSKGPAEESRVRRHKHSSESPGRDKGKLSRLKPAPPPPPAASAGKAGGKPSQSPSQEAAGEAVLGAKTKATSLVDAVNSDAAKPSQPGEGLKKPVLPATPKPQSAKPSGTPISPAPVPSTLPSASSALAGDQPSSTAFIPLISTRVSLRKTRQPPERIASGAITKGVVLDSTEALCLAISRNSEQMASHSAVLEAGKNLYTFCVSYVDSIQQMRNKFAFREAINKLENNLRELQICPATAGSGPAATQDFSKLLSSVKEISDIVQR

O=C1Nc2c(cc([N+](=O)[O-])c3c2CCCC3)C1=NO [Compound 5d, 3-(Hydroxyimino)-5-nitro-1,3,6,7,8,9-hexahydro-2H-benzo[g]indol-2-one]
inhibition at 10 µM [1]: 63% | inhibition at 10 µM [2]: 28% | inhibition at 10 µM [3]: 0% | inhibition at 10 µM [4]: 11% | inhibition at 10 µM [5]: 9% | inhibition at 10 µM [6]: 93.9% | inhibition at 10 µM [7]: 0% | inhibition at 10 µM [8]: 94% | inhibition at 10 µM [9]: 0% | inhibition at 10 µM [10]: 38% | inhibition at 10 µM [11]: 67% | inhibition at 10 µM [12]: 38% | inhibition at 10 µM [13]: 32% | inhibition at 10 µM [14]: 0% | inhibition at 10 µM [15]: 0% | inhibition at 10 µM [16]: 29% | inhibition at 10 µM [17]: 4% | inhibition at 10 µM [18]: 25% | inhibition at 10 µM [19]: 19% | inhibition at 10 µM [20]: 9% | inhibition at 10 µM [21]: 89.8% | inhibition at 10 µM [22]: 63% | inhibition at 10 µM [23]: 11% | inhibition at 10 µM [24]: 32% | inhibition at 10 µM [25]: 24% | inhibition at 10 µM [26]: 17% | inhibition at 10 µM [27]: 0% | inhibition at 10 µM [28]: 0% | inhibition at 10 µM [29]: 43% | inhibition at 10 µM [30]: 54% | inhibition at 10 µM [31]: 56% | inhibition at 10 µM [32]: 72% | inhibition at 10 µM [33]: 0% | inhibition at 10 µM [34]: 10% | inhibition at 10 µM [35]: 12% | inhibition at 10 µM [36]: 0% | inhibition at 10 µM [37]: 0% | inhibition at 10 µM [38]: 13% | inhibition at 10 µM [39]: 42% | inhibition at 10 µM [40]: 0%
